Test results reported in PubChem BioAssay (NCI).
Where “and” joins values, the source holds several entries; their conditions need not be identical. Equal entries are not always repeated.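 A five-concentration, 48-hour dose response in 96-well plates underlies each endpoint, interpolated linearly between surrounding concentrations. GI50: concentration for 50% inhibition of growth. At the TGI there is no net growth.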

Assays:
Experiment in all cases: inhibition of tumour cell growth, NCI panel, 48 h
KM20L2 colon = tested on: KM20L2 colon
DMS 273 small cell lung = tested on: DMS 273 small cell lung
XF 498 CNS = tested on: XF 498 CNS
SNB-78 CNS = tested on: SNB-78 CNS
MDA-MB-435 = tested on: MDA-MB-435
HS 578T breast = tested on: HS 578T breast
DU-145 prostate = tested on: DU-145 prostate
T-47D breast = tested on: T-47D breast
DMS 114 small cell lung = tested on: DMS 114 small cell lung
DLD-1 colon = tested on: DLD-1 colon

| Compound | TGI (KM20L2 colon) | TGI (DMS 273 small cell lung) | TGI (XF 498 CNS) | TGI (SNB-78 CNS) | GI50 (MDA-MB-435) | TGI (MDA-MB-435) | GI50 (HS 578T breast) | TGI (HS 578T breast) | GI50 (DU-145 prostate) | TGI (DU-145 prostate) | GI50 (T-47D breast) | TGI (T-47D breast) | TGI (DMS 114 small cell lung) | TGI (DLD-1 colon) |
| --- | --- | --- | --- | --- | --- | --- | --- | --- | --- | --- | --- | --- | --- | --- |
| FC(F)(F)C12C34C=CC5(CCC6(C=CC1(CC3)O6)C52C(F)(F)F)O4 (centres undefined) | > 100 µM | > 100 µM | > 100 µM | > 100 µM |  |  |  |  |  |  |  |  |  |  |
| Cc1cn2c(/C=N/N/C(N)=N\N)c(-c3ccc(Cl)c([N+](=O)[O-])c3)nc2s1 |  |  |  |  | 1.05 µM | 2.22 µM | 1.1 µM | 2.39 µM | 1.12 µM | 3.65 µM | 0.878 µM | 2.48 µM |  |  |
| COc1cnc2c(c1)C(=O)c1c-2n(CCCN2CCCC2)c(=O)c2cc(Cl)ccc12 |  |  |  |  | 5.06 µM | 10.9 µM | 6.87 µM | 17.9 µM |  |  | 1.21 µM | 18.9 µM |  |  |
| CC(C)=CC(=O)CC(=O)C(=O)Nc1ccc(Cl)c(Cl)c1 | > 100 µM | > 100 µM |  | > 100 µM |  |  |  |  |  |  |  |  | > 100 µM | > 100 µM |
| CCCCCc1c(C)[nH]c(/C=C2\N=C(c3ccc[nH]3)C=C2Oc2ccc(Cl)cc2)c1C |  |  |  |  | 0.0587 µM and 0.0352 µM | 0.334 µM and 0.385 µM | 0.126 µM and 0.0271 µM | 0.65 µM and 0.4 µM | 0.0837 µM and 0.0201 µM | 3.04 µM and 2.91 µM | 0.0709 µM and 0.0329 µM | 2.06 µM and 6.01 µM |  |  |
| CC(C)OC(=O)c1ccc2[nH]c(O)c(C(=Nc3ccc(N(C)C(=O)CN4CCN(C)CC4)cc3)c3ccccc3)c2c1 |  |  |  |  | 1.07 µM | 2.3 µM | 0.0994 µM | 1.15 µM | 0.408 µM | 1.63 µM | 1.2 µM | 3.6 µM |  |  |
| COc1ccc2c(c1)C(=O)c1c-2n(CCCN2CCOCC2)c(=O)c2ccccc12 |  |  |  |  | 4.54 µM | > 100 µM | 8.95 µM | > 100 µM | 2.39 µM | 10.2 µM | 1.55 µM | 7.41 µM |  |  |
| CN(C)c1ccc(C(N)=O)cn1 |  |  |  |  |  | > 100 µM |  | > 100 µM |  | > 100 µM |  |  |  |  |
| N#Cc1ccccc1NC(=O)c1ccccc1 | > 100 µM | > 100 µM | > 100 µM | > 100 µM |  |  |  |  |  |  |  |  |  | > 100 µM |
| COc1ccc2c(c1)nc(N)c1c3cccnc3cn21 |  |  |  |  |  |  | 0.0951 µM | > 49.6 µM | 0.0561 µM | > 33.6 µM | 6.75 µM | 33.4 µM |  |  |
| C=C(C)[C@@H]1CC[C@@]2(C)[C@H]1[C@H]1CCC3[C@@]4(C)CC[C@H](O)C(C)(C)[C@@H]4CC[C@@]3(C)[C@]1(C)C[C@@H]2O (some centres undefined) |  |  |  |  |  | 84.9 µM |  |  |  | > 100 µM |  | > 100 µM |  |  |
| COc1ccc(-c2ccc(/C=N/n3c(COc4ccc(Cl)cc4)n[nH]c3=S)o2)c([N+](=O)[O-])c1 |  |  |  |  | 25.9 µM | > 100 µM | 47.7 µM | > 100 µM |  |  | 9.57 µM | 82.4 µM |  |  |
| C/C1=C\CC[C@@](C)(O)[C@@H]2CC3[C@@H](OC(=O)C34CC4)[C@@H](O2)[C@H](C)CCC1 (some centres undefined) |  |  |  |  | 20.3 µM | 44.2 µM |  |  |  |  | 47.2 µM | > 100 µM |  |  |
| CS(=O)(=O)Nc1cc(-c2ccc3ncnc(Nc4ccc5c(cnn5Cc5ccc(F)cc5)c4)c3c2)cnc1Cl |  |  |  |  | 1.1 µM | 3.67 µM | 0.246 µM | 2.04 µM | 2.66 µM | 19.1 µM | 0.256 µM | 2.23 µM |  |  |
| CCOC(=O)N1CCN(S(=O)(=O)c2oc(-c3ccc(Cl)cc3)nc2C#N)CC1 |  |  |  |  | 2.32 µM | 5.24 µM | 4.2 µM | 23.8 µM | 2.48 µM | 6.31 µM | 2.29 µM | 5.94 µM |  |  |
| CCOc1ccc(NC(=O)CC2SC(N)=NC2=O)cc1 (centres undefined) | > 100 µM |  | > 100 µM | > 100 µM |  |  |  |  |  |  |  |  | > 100 µM | > 100 µM |
| N#CC1C(N)=NNC12Nc1ccccc1N2 (centres undefined) |  |  |  |  | 14.1 µM | 63.7 µM | 4.8 µM | 25.7 µM | 10.8 µM | > 100 µM | 50.3 µM | > 100 µM |  |  |
| C=C[C@]1(C)C=C2C(=O)[C@@]3(O)OC[C@@]4(CCCC(C)(C)C43O)C2(O)C(O)C1 (some centres undefined) |  |  |  |  | 3.95 µM | 14.9 µM | 5.13 µM | 22.2 µM | 3.03 µM | 11.6 µM | 0.759 µM | 2.43 µM |  |  |
| Cc1cc(N2CCCC2)nc(N(CCCNc2ccnc3cc(Cl)ccc23)Cc2ccc3c(c2)OCO3)n1 |  |  |  |  | 1.26 µM | 2.56 µM | 1.74 µM | 4.21 µM |  |  | 1.42 µM | 4.66 µM |  |  |
| Nc1nc(OCc2ccccc2)nc2[nH]ncc12 |  |  |  |  | 16.2 µM | 30.5 µM | 17.5 µM | 38.5 µM | 18.4 µM | > 100 µM | 4.12 µM | 9.69 µM |  |  |
| CCOC(=O)c1c(C)n(Cc2ccc(Cl)cc2Cl)c2c1cc1oc(=O)c(=O)n3c(Cc4ccccc4)nc2c13 |  |  |  |  | 4.55 µM | 16.9 µM | 1.21 µM | 3.12 µM | 2.45 µM | 6.64 µM | 4.9 µM | 22.2 µM |  |  |
| O=C(NN1C(=O)CSC1c1ccc(Cl)cc1)c1[nH]c2ccc(F)cc2c1-c1ccccc1 (centres undefined) |  |  |  |  | 2.94 µM | 9.13 µM | 2.84 µM | 9.37 µM | 2.2 µM | 4.63 µM | 3.73 µM | 14.2 µM |  |  |
| CC1=CC(=O)C(C(C)=Nc2ccccc2Cl)C(=O)O1 (centres undefined) |  |  |  |  | > 100 µM | > 100 µM | > 100 µM | > 100 µM | > 100 µM | > 100 µM | > 100 µM | > 100 µM |  |  |
| Cn1cc(-c2ccc3c(c2)CCN3C(=O)Cc2cccc(C(F)(F)F)c2)c2c(N)ncnc21 |  |  |  |  | 4.46 µM | 21.2 µM | 2.76 µM | 19.1 µM | 2.5 µM | 19.5 µM | 3.32 µM | 20.2 µM |  |  |
| CC[CH2][Pb]([CH2]CC)([CH2]CC)[NH]S(=O)(=O)c1ccc(C)cc1 |  |  |  |  | 0.0194 µM | 0.0766 µM | 0.0638 µM | 0.354 µM | 0.0853 µM | 0.444 µM |  |  |  |  |
| Cn1cc(-c2ccc(CNc3cc(-c4cnc5cc(OCCCN6CCCC6)ccn45)ncn3)cc2)cn1 |  |  |  |  | 1.71 µM | 3.19 µM | 3.52 µM | 26.2 µM | 15.1 µM | 31.5 µM | 18.7 µM | 43.1 µM |  |  |
| CCCCC[C@H]1C/C=C2/C(=O)C(Cl)=C[C@@H]2C/C=C\CCCC(=O)O[C@@H](CCCCC)C/C=C2/C(=O)C(Cl)=C[C@@H]2C/C=C\CCCC(=O)O1 |  |  |  |  | 0.344 µM | 0.793 µM | 0.709 µM | 16.7 µM | 0.494 µM | 1.74 µM | 0.39 µM | 1.18 µM |  |  |
